Measured values: patent US6355799B1, “Substituted benzene compounds, process for their preparation, and herbicidal and defoliant compositions containing them” (ISK Americas Incorporated, priority 1997, dated 2002)

Tests used:
Assay type in all cases: in vivo
[1] = test system: barnyardgrass (Echinochloa crus-galli, ECHCG); experiment: Pre-emerge test, greenhouse herbicide activity screening; conditions: pre-emerge, phytotoxicity rating 0-100 at 14 days after application
Summary of the method: (§1)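 Compounds in acetone were track-sprayed at 15-1000 g ai/ha (187 l/ha) on sandy loam pots: pre-emerge one day after seeding, post-emerge at 2-3 leaf stage with 0.25% v/v non-ionic surfactant. Phytotoxicity was rated 14 days later on a 0 (no damage) to 100 (complete death) scale.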

[2] = test system: green foxtail (Setaria viridis, SETVI); experiment: as above; conditions: pre-emerge, phytotoxicity rating 0-100 at 14 days after application
Summary of the method: as §1

[3] = test system: sicklepod (Cassia obtusifolia, CASOB); experiment: as above; conditions: pre-emerge, phytotoxicity rating 0-100 at 14 days after application
Summary of the method: as §1

[4] = test system: velvetleaf (Abutilon theophrasti, ABUTH); experiment: as above; conditions: pre-emerge, phytotoxicity rating 0-100 at 14 days after application
Summary of the method: as §1

[5] = test system: ivyleaf morningglory (Ipomoea hederacea, IPOHE); experiment: as above; conditions: pre-emerge, phytotoxicity rating 0-100 at 14 days after application
Summary of the method: as §1

[6] = test system: lambsquarters (Chenopodium album, CHEAL); experiment: as above; conditions: pre-emerge, phytotoxicity rating 0-100 at 14 days after application
Summary of the method: as §1

[7] = test system: large crabgrass (Digitaria sanguinalis, DIGSA); experiment: as above; conditions: pre-emerge, phytotoxicity rating 0-100 at 14 days after application
Summary of the method: as §1

[8] = test system: barnyardgrass (Echinochloa crus-galli, ECHCG); experiment: Post-emerge test, greenhouse herbicide activity screening; conditions: post-emerge, phytotoxicity rating 0-100 at 14 days after application
Summary of the method: (§2)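 Sandy loam pots; pre-emerge: sown 1 d pre-spray, surface-watered after, then bottom-watered. Post-emerge: sown 8–21 d before, 2–3 leaf stage, + 0.25% v/v NIS, bottom-watered. Acetone, 187 l/ha track spray, 15–1000 g ai/ha. 0–100 injury score, day 14.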

[9] = test system: green foxtail (Setaria viridis, SETVI); experiment: as above; conditions: post-emerge, phytotoxicity rating 0-100 at 14 days after application
Summary of the method: as §2

[10] = test system: sicklepod (Cassia obtusifolia, CASOB); experiment: as above; conditions: post-emerge, phytotoxicity rating 0-100 at 14 days after application
Summary of the method: as §2

[11] = test system: johnsongrass (Sorghum halepense, SORHA); experiment: as above; conditions: post-emerge, phytotoxicity rating 0-100 at 14 days after application
Summary of the method: as §2

[12] = test system: redroot pigweed (Amaranthus retroflexus, AMARE); experiment: as above; conditions: post-emerge, phytotoxicity rating 0-100 at 14 days after application
Summary of the method: as §2

[13] = test system: velvetleaf (Abutilon theophrasti, ABUTH); experiment: as above; conditions: post-emerge, phytotoxicity rating 0-100 at 14 days after application
Summary of the method: as §2

[14] = test system: ivyleaf morningglory (Ipomoea hederacea, IPOHE); experiment: as above; conditions: post-emerge, phytotoxicity rating 0-100 at 14 days after application
Summary of the method: as §2

[15] = test system: lambsquarters (Chenopodium album, CHEAL); experiment: as above; conditions: post-emerge, phytotoxicity rating 0-100 at 14 days after application
Summary of the method: as §2

[16] = test system: large crabgrass (Digitaria sanguinalis, DIGSA); experiment: as above; conditions: post-emerge, phytotoxicity rating 0-100 at 14 days after application
Summary of the method: as §2

[17] = test system: upland rice (Oryza sp., var. Tebonnet, RICE); experiment: Post-emerge test, crop safety; conditions: post-emerge, crop damage rating 0-100 at 14 days after application
Summary of the method: as §1

[18] = test system: field corn (Zea mays L., var. Dekalb 535, CORN); experiment: Post-emerge test, crop safety; conditions: post-emerge, crop damage rating 0-100 at 14 days after application
Summary of the method: as §1

[19] = test system: redroot pigweed (Amaranthus retroflexus, AMARE); experiment: Pre-emerge test, greenhouse herbicide activity screening; conditions: pre-emerge, phytotoxicity rating 0-100 at 14 days after application
Summary of the method: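 Plants grown in 10 cm pots of sandy loam mix received acetone-dissolved compounds through a moving flat-fan nozzle. Doses ranged from 15 to 1000 g ai/ha. Pre-emerge pots were seeded one day earlier, post-emerge pots 8–21 days earlier. Fourteen days on, each pot was graded 0–100 for damage.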

[20] = test system: upland rice (Oryza sp., var. Tebonnet, RICE); experiment: Pre-emerge test, crop safety; conditions: crop damage, pre-emerge, phytotoxicity rating 0-100 at 14 days after application
Summary of the method: (§3)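 Herbicidal damage is scored 0 (none) to 100 (complete plant death) two weeks after a simulated field spray. Rates span 15–1000 g ai/ha, delivered in acetone at 187 l/ha. For post-emergence treatments, plants have 2–3 leaves and the spray carries 0.25% v/v non-ionic surfactant.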

[21] = test system: field corn (Zea mays L., var. Dekalb 535, CORN); experiment: Pre-emerge test, crop safety; conditions: crop damage, pre-emerge, phytotoxicity rating 0-100 at 14 days after application
Summary of the method: as §3

COc1cccc(COC(=O)Nc2c(C)c(Cl)cc(F)c2-n2c(=O)cc(C(F)(F)F)n(C)c2=O)c1 [4-65]
Pre-emerge Herbicidal Activity ECHCG ([1]; rate 63 g ai/ha): 80
Pre-emerge Herbicidal Activity ECHCG ([1]; rate 250 g ai/ha): 90
Pre-emerge Herbicidal Activity SETVI ([2]; rate 63 g ai/ha): 100
Pre-emerge Herbicidal Activity SETVI ([2]; rate 250 g ai/ha): 100
Pre-emerge Herbicidal Activity CASOB ([3]; rate 63 g ai/ha): 80
Pre-emerge Herbicidal Activity CASOB ([3]; rate 250 g ai/ha): 90
Pre-emerge Herbicidal Activity ABUTH ([4]; rate 63 g ai/ha): 100
Pre-emerge Herbicidal Activity ABUTH ([4]; rate 250 g ai/ha): 100
Pre-emerge Herbicidal Activity IPOHE ([5]; rate 63 g ai/ha): 90
Pre-emerge Herbicidal Activity IPOHE ([5]; rate 250 g ai/ha): 100
Pre-emerge Herbicidal Activity CHEAL ([6]; rate 63 g ai/ha): 100
Pre-emerge Herbicidal Activity CHEAL ([6]; rate 250 g ai/ha): 100
Pre-emerge Herbicidal Activity DIGSA ([7]; rate 63 g ai/ha): 100
Pre-emerge Herbicidal Activity DIGSA ([7]; rate 250 g ai/ha): 100
Post-emerge Herbicidal Activity ECHCG ([8]; 63 g ai/ha): 60
Post-emerge Herbicidal Activity ECHCG ([8]; 250 g ai/ha): 70
Post-emerge Herbicidal Activity SETVI ([9]; 63 g ai/ha): 100
Post-emerge Herbicidal Activity SETVI ([9]; 250 g ai/ha): 100
Post-emerge Herbicidal Activity CASOB ([10]; 63 g ai/ha): 100
Post-emerge Herbicidal Activity CASOB ([10]; 250 g ai/ha): 100
Post-emerge Herbicidal Activity SORHA ([11]; 63 g ai/ha): 70
Post-emerge Herbicidal Activity SORHA ([11]; 250 g ai/ha): 80
Post-emerge Herbicidal Activity AMARE ([12]; 63 g ai/ha): 100
Post-emerge Herbicidal Activity AMARE ([12]; 250 g ai/ha): 100
Post-emerge Herbicidal Activity ABUTH ([13]; 63 g ai/ha): 100
Post-emerge Herbicidal Activity ABUTH ([13]; 250 g ai/ha): 100
Post-emerge Herbicidal Activity IPOHE ([14]; 63 g ai/ha): 100
Post-emerge Herbicidal Activity IPOHE ([14]; 250 g ai/ha): 100
Post-emerge Herbicidal Activity CHEAL ([15]; 63 g ai/ha): 100
Post-emerge Herbicidal Activity CHEAL ([15]; 250 g ai/ha): 100
Post-emerge Herbicidal Activity DIGSA ([16]; 63 g ai/ha): 60
Post-emerge Herbicidal Activity DIGSA ([16]; 250 g ai/ha): 80
Post-emerge Herbicidal Activity RICE ([17]; 63 g ai/ha): 70
Post-emerge Herbicidal Activity RICE ([17]; 250 g ai/ha): 80
Post-emerge Herbicidal Activity CORN ([18]; 63 g ai/ha): 80
Post-emerge Herbicidal Activity CORN ([18]; 250 g ai/ha): 90
Pre-emerge Herbicidal Activity AMARE ([19]; rate 63 g ai/ha): 100
Pre-emerge Herbicidal Activity AMARE ([19]; rate 250 g ai/ha): 100
Pre-emerge Herbicidal Activity RICE ([20]; rate 63 g ai/ha): 65
Pre-emerge Herbicidal Activity RICE ([20]; rate 250 g ai/ha): 90
Pre-emerge Herbicidal Activity CORN ([21]; rate 63 g ai/ha): 55
Pre-emerge Herbicidal Activity CORN ([21]; rate 250 g ai/ha): 75

COc1c(Cl)cc(F)c(-n2nc(C)n(C(F)F)c2=O)c1NC(=O)c1ccc(F)cc1F [Compound 6-14]
Pre-emerge Herbicidal Activity ECHCG ([1]; rate 63 g ai/ha): 100
Pre-emerge Herbicidal Activity ECHCG ([1]; rate 250 g ai/ha): 100
Pre-emerge Herbicidal Activity SETVI ([2]; rate 63 g ai/ha): 100
Pre-emerge Herbicidal Activity SETVI ([2]; rate 250 g ai/ha): 100
Pre-emerge Herbicidal Activity CASOB ([3]; rate 63 g ai/ha): 40
Pre-emerge Herbicidal Activity CASOB ([3]; rate 250 g ai/ha): 60
Pre-emerge Herbicidal Activity ABUTH ([4]; rate 63 g ai/ha): 100
Pre-emerge Herbicidal Activity ABUTH ([4]; rate 250 g ai/ha): 100
Pre-emerge Herbicidal Activity IPOHE ([5]; rate 63 g ai/ha): 60
Pre-emerge Herbicidal Activity IPOHE ([5]; rate 250 g ai/ha): 100
Pre-emerge Herbicidal Activity CHEAL ([6]; rate 63 g ai/ha): 100
Pre-emerge Herbicidal Activity CHEAL ([6]; rate 250 g ai/ha): 100
Pre-emerge Herbicidal Activity DIGSA ([7]; rate 63 g ai/ha): 100
Pre-emerge Herbicidal Activity DIGSA ([7]; rate 250 g ai/ha): 100
Post-emerge Herbicidal Activity ECHCG ([8]; 63 g ai/ha): 20
Post-emerge Herbicidal Activity ECHCG ([8]; 250 g ai/ha): 90
Post-emerge Herbicidal Activity SETVI ([9]; 63 g ai/ha): 90
Post-emerge Herbicidal Activity SETVI ([9]; 250 g ai/ha): 100
Post-emerge Herbicidal Activity CASOB ([10]; 63 g ai/ha): 60
Post-emerge Herbicidal Activity CASOB ([10]; 250 g ai/ha): 90
Post-emerge Herbicidal Activity SORHA ([11]; 63 g ai/ha): 30
Post-emerge Herbicidal Activity SORHA ([11]; 250 g ai/ha): 90
Post-emerge Herbicidal Activity AMARE ([12]; 63 g ai/ha): 80
Post-emerge Herbicidal Activity AMARE ([12]; 250 g ai/ha): 100
Post-emerge Herbicidal Activity ABUTH ([13]; 63 g ai/ha): 100
Post-emerge Herbicidal Activity ABUTH ([13]; 250 g ai/ha): 100
Post-emerge Herbicidal Activity IPOHE ([14]; 63 g ai/ha): 100
Post-emerge Herbicidal Activity IPOHE ([14]; 250 g ai/ha): 100
Post-emerge Herbicidal Activity CHEAL ([15]; 63 g ai/ha): 100
Post-emerge Herbicidal Activity CHEAL ([15]; 250 g ai/ha): 100
Post-emerge Herbicidal Activity DIGSA ([16]; 63 g ai/ha): 60
Post-emerge Herbicidal Activity DIGSA ([16]; 250 g ai/ha): 90
Post-emerge Herbicidal Activity RICE ([17]; 63 g ai/ha): 60
Post-emerge Herbicidal Activity RICE ([17]; 250 g ai/ha): 90
Post-emerge Herbicidal Activity CORN ([18]; 63 g ai/ha): 60
Post-emerge Herbicidal Activity CORN ([18]; 250 g ai/ha): 100
Pre-emerge Herbicidal Activity AMARE ([19]; rate 63 g ai/ha): 90
Pre-emerge Herbicidal Activity AMARE ([19]; rate 250 g ai/ha): 100
Pre-emerge Herbicidal Activity RICE ([20]; rate 63 g ai/ha): 90
Pre-emerge Herbicidal Activity RICE ([20]; rate 250 g ai/ha): 100
Pre-emerge Herbicidal Activity CORN ([21]; rate 63 g ai/ha): 90
Pre-emerge Herbicidal Activity CORN ([21]; rate 250 g ai/ha): 100
